Test results published in patent publication US20140343017A1, “PYRROLE COMPOUND” (Kabushiki Kaisha Yakult Honsha, priority 2012, published 2014).
Structures can show the parent of a compound that is named as a salt. Where two headings read alike, the source gives them in different places.

Tests used:
[1] = system: human colorectal cancer HT-29 cells; test: Inhibitory effect on growth of human cancer cells (in vitro), WST-8; assay type: cell-based; conditions: 96 hours culture, read-out: IC50 (nM) HT29
Outline: (§1)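 Cells seeded at 1000 cells/well in RPMI1640 with 10% FBS, compounds added after overnight culture, then 96 h exposure. Viability by WST-8, about 1 h at 37 °C, 5% CO2, absorbance read at 450 nm.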

[2] = system: human non-small cell lung cancer A549 cells; test: as above; assay type: cell-based; conditions: 96 hours culture
Outline: as §1

[3] = system: human colorectal cancer HCT116 cells; test: as above; assay type: cell-based; conditions: 96 hours culture
Outline: as §1

[4] = system: human lung cancer NCI-H460 xenograft tumor; test: Antitumor effect on growth of human lung cancer NCI-H460 xenograft tumor (in vivo); parameters: species or system BALB/c nude mice; conditions: Mus musculus, NCI-H460, iv, 528 h, tail vein, excised tumor weight Day 22, read-out: Inhibition Rate (%)
Experimental: Each compound of the present invention was studied for its in vivo antitumor effect using human lung cancer NCI-H460 cell-transplanted mice. An NCI-H460 cell suspension containing 2×10^6 cells was subcutaneously transplanted in an amount of 0.1 mL/mouse to the left groin areas of 6-week-old male BALB/c nude mice. The mice were further raised for approximately 1 week to 10 days and divided into groups (4 mice per group) having equal estimated tumor volumes at the point in time when the tumor size reached approximately 100 to 200 mm^3 (Day 1). Each administration sample was administered at a dose of 10 mL/kg into the tail vein of the mice. The dose and administration schedule of each compound were as described in Table 3. At Day 22, tumor was excised from each mouse. The tumor growth inhibition rate (IR: Inhibition Rate) was calculated from the weight of the excised tumor according to the expression shown below. The Dunnett's test was used in the significant difference test.
Tumor growth inhibition rate (Inhibition Rate, %)=(1−(Excised tumor weight of the administration group)/(Excised tumor weight of the control group))×100

[5] = Days 1, 3, 5, 8, 10, 12, 15, 17, 19
[6] = Days 1, 3, 8, 10, 12, 15, 17, 19

SMILES	IC50 ([1]; Homo sapiens, HT-29, 96 h)	IC50 ([2]; Homo sapiens, A549, 96 h)	IC50 ([3]; Homo sapiens, HCT-116, 96 h)	further results
CCn1nnc(-c2[nH]c(C)c(C(=O)c3cccc(Br)c3)c2C)n1 [Compound 97, (3-bromophenyl)(5-(2-ethyl-2H-tetrazol-5-yl)-2,4-dimethyl-1H-pyrrol-3-yl)methanone]	3.5 nM	2.4 nM	4.1 nM	inhibition in vivo at 30 mg/kg ([4]; 30 mg/kg, Days 1, 3, 5, 8, 10, 12, 15, 17, 19): 31.2%
COc1cccc(C(=O)c2c(C)[nH]c(-c3nnn(CCO)n3)c2C)c1 [Compound 107]	16.1 nM	54.9 nM	27.4 nM	inhibition in vivo at 25 mg/kg [4, 5]: 32.6%
CCn1nnc(-c2[nH]c(C)c(C(=O)c3ccc(OC)c(Br)c3)c2C)n1 [Compound 109, (3-bromo-4-methoxyphenyl)(5-(2-ethyl-2H-tetrazol-5-yl)-2,4-dimethyl-1H-pyrrol-3-yl)methanone]	1 nM	9.2 nM	2 nM	inhibition in vivo at 25 mg/kg [4, 6]: 29%
CCc1nnc(-c2[nH]c(C)c(C(=O)c3cccc(Br)c3)c2C)o1 [Compound 173, (3-bromophenyl)(5-(5-ethyl-1,3,4-oxadiazol-2-yl)-2,4-dimethyl-1H-pyrrol-3-yl)methanone]	1 nM	5.1 nM	1.1 nM	inhibition in vivo at 10 mg/kg [4, 5]: 40.2%
CCc1nnc(-c2[nH]c(C)c(C(=O)c3cccc(OC)c3)c2C)o1 [Compound 193, (5-(5-ethyl-1,3,4-oxadiazol-2-yl)-2,4-dimethyl-1H-pyrrol-3-yl) (3-methoxyphenyl)methanone]	2.1 nM	4.3 nM	2.5 nM	inhibition in vivo at 10 mg/kg [4, 6]: 33.9%
COc1ccc(Br)cc1C(=O)c1c(C)[nH]c(-c2nnc(C3CC3)o2)c1C [Compound 240, (5-bromo-2-methoxyphenyl)(5-(5-cyclopropyl-1,3,4-oxadiazol-2-yl)-2,4-dimethyl-1H-pyrrol-3-yl)methanone]	1.1 nM	2.1 nM	1.9 nM	inhibition in vivo at 12.5 mg/kg ([4]; 12.5 mg/kg, Days 1, 3, 5, 8, 10, 12, 15, 17, 19): 33.2%
COc1ccc(C(=O)c2c(C=O)[nH]c(-c3nnc(C4CC4)o3)c2C)cc1Br [Compound 263, 3-(3-bromo-4-methoxybenzoyl)-5-(5-cyclopropyl-1,3,4-oxadiazol-2-yl)-4-methyl-1H-pyrrole-2-carboaldehyde]	32.5 nM	36.5 nM	53.8 nM	inhibition in vivo at 50 mg/kg ([4]; 50 mg/kg, Days 1, 3, 5, 8, 10, 12, 15, 17, 19): 59.6%
Cc1[nH]c(-c2nnn(CCN)n2)c(Br)c1C(=O)c1cccc(Br)c1 [Compound 290, (5-(2-(2-aminoethyl)-2H-tetrazol-5-yl)-4-bromo-2-methyl-1H-pyrrol-3-yl)(3-bromophenyl)methanone]	123 nM	167 nM	184 nM	
CNC(=O)c1[nH]c(-c2nnn(CCOC(C)=O)n2)c(C)c1C(=O)c1ccc(OC)c(Br)c1 [Compound 295, 2-(5-(4-(3-bromo-4-methoxybenzoyl)-3-methyl-5-(methylcarbamoyl)-1H-pyrrol-2-yl)-2H-tetrazol-2-yl)ethyl acetate]	460 nM	509 nM	957 nM	
CCn1nnc(-c2[nH]c(C)c(C(=O)c3cccc(OCCN)c3)c2C)n1 [Compound 296, (3-(2-aminoethoxy)phenyl)(5-(2-ethyl-2H-tetrazol-5-yl)-2,4-dimethyl-1H-pyrrol-3-yl)methanone hydrochloride]				IC50 ([1]; hydrochloride): 198 nM; IC50 ([2]; hydrochloride): 637 nM; IC50 ([3]; hydrochloride): 208 nM
Cc1[nH]c(-c2nnn(CCOC(=O)CN)n2)c(C)c1C(=O)c1cccc(Br)c1 [Compound 297, 2-(5-(4-(3-bromobenzoyl)-3,5-dimethyl-1H-pyrrol-2-yl)-2H-tetrazol-2-yl)ethyl 2-aminoacetate hydrochloride]				IC50 ([1]; hydrochloride): 8.2 nM; IC50 ([2]; hydrochloride): 12.2 nM; IC50 ([3]; hydrochloride): 7.3 nM
CCn1nnc(-c2[nH]c(C)c(C(=O)c3ccc(OCCN)c(Br)c3)c2C)n1 [Compound 302, (4-(2-aminoethoxy)-3-bromophenyl)(5-(2-ethyl-2H-tetrazol-5-yl)-2,4-dimethyl-1H-pyrrol-3-yl)methanone hydrochloride]				IC50 ([1]; hydrochloride): 33 nM; IC50 ([2]; hydrochloride): 47.4 nM; IC50 ([3]; hydrochloride): 35 nM
